{"source": "patent US8168241B2", "about": "“Performance-enhancing dietary supplement” (Reliv International, Inc., priority 1998, dated 2012)", "origin": "cited, not measured here", "key": {"[1]": {"settings": "resulting from the ingestion of CLA"}, "[2]": {"settings": "co-administration of piper nigrum extract; double blind studies"}}, "data": [{"compound": "conjugated linoleic acid [CLA]", "values": [{"measurement": "reduction in body fat", "setting": "[1]", "result": "≤ 20", "unit": "%"}]}, {"compound": "COC1=C(OC)C(=O)C(C/C=C(\\C)CC/C=C(\\C)CC/C=C(\\C)CC/C=C(\\C)CC/C=C(\\C)CC/C=C(\\C)CC/C=C(\\C)CC/C=C(\\C)CC/C=C(\\C)CCC=C(C)C)=C(C)C1=O", "note": "[coenzyme Q10]", "values": [{"measurement": "bioavailability", "setting": "[2]", "result": "significantly increased"}]}]}
